Experimental data published in patent US10294246B2, “Substituted boronic acids and boronate esters as immunoproteasome inhibitors” (MERCK PATENT GMBH, priority 2014, dated 2019).

Key:
[1] = target: human immunoproteasome (LMP7) (Homo sapiens (Human), UniProt P28062); test: Determination of LMP7 activity (fluorescence intensity assay, Suc-LLVY-AMC); assay type: biochemical; conditions: for Selectivity LMP7 vs Beta5: LMP7 versus Beta5; for IC50: purified human immunoproteasome 0.25 nM, Suc-LLVY-AMC 40 μM
Experimental: Determination of LMP7 Activity:
Measurement of LMP7 inhibition is performed in 384 well format based on fluorescence intensity assay.
(§1) Purified human immunoproteasome (0.25 nM) and serial diluted compounds in DMSO (range of concentrations from 30 μM to […]) or controls are incubated for 20 minutes at 25° C. in assay buffer containing 50 mM Tris pH 7.4, 0.03% SDS, 1 mM EDTA and 1% DMSO. The reaction is initiated by the addition of the fluorogenic peptide substrate, Suc-LLVY-AMC (Bachem 1-1395), at a concentration of 40 μM. After 60 minutes of incubation at 37° C., fluorescence intensity is measured at λex=350 nm and λem=450 nm with a fluorescence reader (Perkin Elmer Envision reader or equivalent).

[2] = target: human constitutive proteasome (Beta5) (Homo sapiens (Human), UniProt P28074); test: Determination of Beta5 activity (fluorescence intensity assay, Suc-LLVY-AMC); assay type: biochemical; conditions: purified human constitutive proteasome 1.25 nM, Suc-LLVY-AMC 40 μM
Experimental: Determination of Beta5 Activity:
Measurement of Beta5 inhibition is performed in 384 well format based on fluorescence intensity assay.
as §1, with “constitutive proteasome (1.25” for “immunoproteasome (0.25”

| Structure (SMILES) | Selectivity LMP7 vs Beta5 [1] | IC50 [1] [nM] | IC50 [2] [nM] |
| --- | --- | --- | --- |
| O=C(Cc1ccccc1OC1CCOCC1)N[C@@H](Cc1coc2ccccc12)B(O)O [Compound No. 54, [(1R)-2-(benzofuran-3-yl)-1-[[2-(2-tetrahydropyran-4-yloxyphenyl)-acetyl]amino]ethyl]boronic acid] | +++++ (Selectivity ≥ 100) | < 50 | 50 to 500 |
| O=C(Cc1ccccc1OCCCO)N[C@@H](Cc1coc2ccccc12)B(O)O [Compound No. 55, [(1R)-2-(benzofuran-3-yl)-1-[[2-[2-(3-hydroxypropoxy)phenyl]acetyl]-amino]ethyl]boronic acid] | ++++ (70 ≤ Selectivity < 100) | < 50 | 500 to 5000 |
| O=C(N[C@H](Cc1coc2ccccc12)B(O)O)[C@H](CO)c1ccccc1 [Compound No. 56, [(1S)-2-(benzofuran-3-yl)-1-[[(2S)-3-hydroxy-2-phenyl-propanoyl]-amino]ethyl]boronic acid] | +++++ (Selectivity ≥ 100) | 50 to 500 | > 5000 |
| O=C(N[C@@H](Cc1coc2ccccc12)B(O)O)[C@H](CO)c1ccccc1 [Compound No. 57, [(1R)-2-(benzofuran-3-yl)-1-[[(2S)-3-hydroxy-2-phenyl-propanoyl]-amino]ethyl]boronic acid] | +++++ (Selectivity ≥ 100) | < 50 | 500 to 5000 |
| COc1ccc(OC)c(CC(=O)N[C@@H](Cc2coc3ccccc23)B(O)O)c1 [Compound No. 58, [(1R)-2-(benzofuran-3-yl)-1-[[2-(2,5-dimethoxyphenyl)acetyl]amino]-ethyl]boronic acid] | ++++ (70 ≤ Selectivity < 100) | < 50 | 50 to 500 |
| O=C(N[C@@H](Cc1coc2ccccc12)B(O)O)[C@@H](CO)c1ccccc1 [Compound No. 59, [(1R)-2-(benzofuran-3-yl)-1-[[(2R)-3-hydroxy-2-phenyl-propanoyl]-amino]ethyl]boronic acid] | ++++ (70 ≤ Selectivity < 100) | < 50 | 50 to 500 |
| COc1ccc(CC(=O)N[C@@H](Cc2coc3ccccc23)B(O)O)c(OC)c1OC [Compound No. 60, [(1R)-2-(benzofuran-3-yl)-1-[[2-(2,3,4-trimethoxyphenyl)acetyl]amino]-ethyl]boronic acid] | ++++ (70 ≤ Selectivity < 100) | < 50 | 50 to 500 |
| O=C(Cc1ccccc1OCCCO)N[C@H](Cc1coc2ccccc12)B(O)O [Compound No. 61, [(1S)-2-(benzofuran-3-yl)-1-[[2-[2-(3-hydroxypropoxy)phenyl]acetyl]-amino]ethyl]boronic acid] | +++++ (Selectivity ≥ 100) | 50 to 500 | > 5000 |
| O=C(N[C@H](Cc1coc2ccccc12)B(O)O)[C@@H](CO)c1ccccc1 [Compound No. 62, [(1S)-2-(benzofuran-3-yl)-1-[[(2R)-3-hydroxy-2-phenyl-propanoyl]-amino]ethyl]boronic acid] | +++++ (Selectivity ≥ 100) | < 50 | 500 to 5000 |
| O=C(Cc1ccccc1C(=O)N1CCOCC1)N[C@@H](Cc1coc2ccccc12)B(O)O [Compound No. 63, [(1R)-2-(benzofuran-3-yl)-1-[[2-[2-(morpholine-4-carbonyl)phenyl]-acetyl]amino]ethyl]boronic acid] | +++++ (Selectivity ≥ 100) | < 50 | 500 to 5000 |
| O=C(Cc1ccc(N2CCCC2=O)cc1)N[C@@H](Cc1coc2ccccc12)B(O)O [Compound No. 64, [(1R)-2-(benzofuran-3-yl)-1-[[2-[4-(2-oxopyrrolidin-1-yl)phenyl]acetyl]-amino]ethyl]boronic acid] | +++ (50 ≤ Selectivity < 70) | < 50 | 50 to 500 |
| CCNC(=O)c1ccccc1CC(=O)N[C@@H](Cc1coc2ccccc12)B(O)O [Compound No. 65, [(1R)-2-(benzofuran-3-yl)-1-[[2-[2-(ethylcarbamoyl)phenyl]acetyl]-amino]ethyl]boronic acid] | ++++ (70 ≤ Selectivity < 100) | < 50 | 500 to 5000 |
| CN(C)C(=O)c1ccccc1CC(=O)N[C@@H](Cc1coc2ccccc12)B(O)O [Compound No. 66, [(1R)-2-(benzofuran-3-yl)-1-[[2-[2-(dimethylcarbamoyl)phenyl]acetyl]-amino]ethyl]boronic acid] | +++++ (Selectivity ≥ 100) | < 50 | 500 to 5000 |
| O=C(Cc1ccc(-c2ccccc2)cc1)N[C@@H](Cc1coc2ccccc12)B(O)O [Compound No. 67, [(1R)-2-(benzofuran-3-yl)-1-[[2-(4-phenylphenyl)acetyl]amino]ethyl]-boronic acid] | ++ (10 ≤ Selectivity < 50) | < 50 | 500 to 5000 |
| O=C(N[C@@H](Cc1coc2ccccc12)B(O)O)C(c1ccccc1)c1ccccc1 [Compound No. 68, [(1R)-2-(benzofuran-3-yl)-1-[(2,2-diphenylacetyl)amino]ethyl]boronic acid] | +++++ (Selectivity ≥ 100) | < 50 | 500 to 5000 |
| O=C(Cc1ccc(-c2ccccc2)cc1)N[C@H](Cc1coc2ccccc12)B(O)O [Compound No. 69, [(1S)-2-(benzofuran-3-yl)-1-[[2-(4-phenylphenyl)acetyl]amino]ethyl]-boronic acid] | ++ (10 ≤ Selectivity < 50) | 50 to 500 | 500 to 5000 |
| COc1ccc(CC(C(=O)N[C@@H](Cc2coc3ccccc23)B(O)O)c2ccccc2)cc1 (stereo partly drawn) [Compound No. 71, [(1R)-2-(benzofuran-3-yl)-1-[[3-(4-methoxyphenyl)-2-phenyl-propanoyl]amino]ethyl]boronic acid] | ++++ (70 ≤ Selectivity < 100) | < 50 | 500 to 5000 |
| CCOC(=O)Nc1cccc(CC(=O)N[C@@H](Cc2coc3ccccc23)B(O)O)c1 [Compound No. 72, [(1R)-2-(benzofuran-3-yl)-1-[[2-[3-(ethoxycarbonylamino)phenyl]-acetyl]amino]ethyl]boronic acid] | +++ (50 ≤ Selectivity < 70) | < 50 | 500 to 5000 |
| O=C(Cc1ccccc1)N[C@@H](Cc1c(Cl)oc2ccccc12)B(O)O [Compound No. 73, [(1R)-2-(2-chlorobenzofuran-3-yl)-1-[(2-phenylacetyl)amino]ethyl]-boronic acid] | +++ (50 ≤ Selectivity < 70) | 50 to 500 | > 5000 |
| O=C(Cc1ccccc1)N[C@@H](CC1COc2ccccc21)B(O)O (stereo partly drawn) [Compound No. 74, [(1R)-2-(2,3-dihydrobenzofuran-3-yl)-1-[(2-phenylacetyl)amino]-ethyl]boronic acid] | +++++ (Selectivity ≥ 100) | < 50 | 500 to 5000 |
| Cc1cccc2c(C[C@H](NC(=O)Cc3ccccc3)B(O)O)coc12 [Compound No. 75, [(1R)-2-(7-methylbenzofuran-3-yl)-1-[(2-phenylacetyl)amino]-ethyl]boronic acid] | +++++ (Selectivity ≥ 100) | < 50 | 500 to 5000 |
| CO[C@@H](C(=O)N[C@@H](Cc1coc2c(C)cccc12)B(O)O)c1ccccc1 [Compound No. 76, [(1R)-1-[[(2R)-2-methoxy-2-phenyl-acetyl]amino]-2-(7-methylbenzofuran-3-yl)ethyl]boronic acid] | +++++ (Selectivity ≥ 100) | < 50 | 500 to 5000 |
| Cc1cccc2c1OCC2C[C@H](NC(=O)Cc1ccccc1)B(O)O (stereo partly drawn) [Compound No. 77, [(1R)-2-(7-methyl-2,3-dihydrobenzofuran-3-yl)-1-[(2-phenylacetyl)-amino]ethyl]boronic acid] | +++++ (Selectivity ≥ 100) | < 50 | 500 to 5000 |
| COc1ccc(OC)c(CC(=O)N[C@@H](Cc2coc3c(C)cccc23)B(O)O)c1 [Compound No. 78, [(1R)-1-[[2-(2,5-dimethoxyphenyl)acetyl]amino]-2-(7-methylbenzofuran-3-yl)ethyl]boronic acid] | +++++ (Selectivity ≥ 100) | < 50 | 500 to 5000 |
| Cc1cccc2c(C[C@H](NC(=O)[C@H](CO)c3ccccc3)B(O)O)coc12 [Compound No. 79, [(1R)-1-[[(2S)-3-hydroxy-2-phenyl-propanoyl]amino]-2-(7-methylbenzofuran-3-yl)ethyl]boronic acid] | +++++ (Selectivity ≥ 100) | < 50 | 500 to 5000 |
| Cc1cccc2c(C[C@@H](NC(=O)[C@H](CO)c3ccccc3)B(O)O)coc12 [Compound No. 80, [(1S)-1-[[(2S)-3-hydroxy-2-phenyl-propanoyl]amino]-2-(7-methylbenzofuran-3-yl)ethyl]boronic acid] | +++++ (Selectivity ≥ 100) | 50 to 500 | > 5000 |
